{"source": "paper PMC12298423", "about": "“Characterization of Novel ACE-Inhibitory Peptides from Nemopilema nomurai Jellyfish Venom Hydrolysate: In Vitro and In Silico Approaches” (Marine Drugs, 2025)", "key": {"ACE": {"biological_target": "ACE (Homo sapiens, UniProt P12821)", "sequence (P12821 30-1306, species assumed)": "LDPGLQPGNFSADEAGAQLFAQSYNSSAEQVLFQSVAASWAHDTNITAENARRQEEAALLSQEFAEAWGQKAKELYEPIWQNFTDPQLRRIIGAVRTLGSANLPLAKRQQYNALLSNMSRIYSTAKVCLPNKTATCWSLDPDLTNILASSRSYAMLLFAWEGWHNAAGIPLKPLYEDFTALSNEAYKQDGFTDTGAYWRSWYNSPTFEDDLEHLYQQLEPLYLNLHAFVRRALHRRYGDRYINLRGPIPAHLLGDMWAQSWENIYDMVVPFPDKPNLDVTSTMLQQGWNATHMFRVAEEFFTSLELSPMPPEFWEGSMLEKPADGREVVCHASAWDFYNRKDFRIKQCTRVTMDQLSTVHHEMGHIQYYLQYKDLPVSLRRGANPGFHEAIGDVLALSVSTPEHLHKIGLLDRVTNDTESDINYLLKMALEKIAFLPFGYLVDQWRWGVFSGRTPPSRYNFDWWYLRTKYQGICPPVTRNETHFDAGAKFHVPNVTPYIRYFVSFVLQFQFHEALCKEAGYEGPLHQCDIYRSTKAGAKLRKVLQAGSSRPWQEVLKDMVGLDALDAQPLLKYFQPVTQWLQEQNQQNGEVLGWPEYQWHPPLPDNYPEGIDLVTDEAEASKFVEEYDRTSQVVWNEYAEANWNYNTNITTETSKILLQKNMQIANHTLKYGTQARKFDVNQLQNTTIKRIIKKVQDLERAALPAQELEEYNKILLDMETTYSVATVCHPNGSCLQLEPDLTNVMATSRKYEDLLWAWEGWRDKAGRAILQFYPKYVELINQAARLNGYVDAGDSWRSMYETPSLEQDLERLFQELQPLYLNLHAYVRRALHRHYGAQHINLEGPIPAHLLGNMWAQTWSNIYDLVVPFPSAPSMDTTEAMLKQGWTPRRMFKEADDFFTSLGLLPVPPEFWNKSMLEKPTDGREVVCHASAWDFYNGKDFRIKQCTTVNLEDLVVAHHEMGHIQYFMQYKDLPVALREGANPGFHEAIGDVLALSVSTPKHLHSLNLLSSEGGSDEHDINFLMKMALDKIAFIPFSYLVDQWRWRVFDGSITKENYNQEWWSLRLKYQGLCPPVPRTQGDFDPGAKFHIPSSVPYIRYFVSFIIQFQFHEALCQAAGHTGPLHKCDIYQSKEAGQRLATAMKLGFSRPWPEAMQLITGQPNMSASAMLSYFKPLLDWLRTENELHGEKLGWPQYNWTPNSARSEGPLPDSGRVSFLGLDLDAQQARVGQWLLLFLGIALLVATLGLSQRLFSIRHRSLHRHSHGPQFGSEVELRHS", "assay": "Lineweaver–Burk plot and secondary plot (ACE inhibition kinetics)", "format": "biochemical", "settings": "secondary plot from Lineweaver–Burk plots; substrate HHL 0.625 to 20 mM", "procedure": "The inhibition pattern of the peptides against ACE was analyzed using Lineweaver–Burk plots. ACE activity was measured at varying concentrations of each peptide (IGDEPRHQYL: 0, 5, and 10 µM; IVGRPLANG: 0, 20, and 40 µM) in the presence of different concentrations of the substrate hippuryl-histidyl-leucine (HHL), ranging from 0.625 to 20 mM. The Michaelis constant (Km) and maximum reaction velocity (Vmax) were calculated from the slope and y-intercept of the Lineweaver–Burk plots. Additionally, secondary plots were generated to determine the inhibition constant (Ki) values for each peptide based on the derived Km and Vmax values."}, "[1]": {"biological_target": "T1, angiotensin-converting enzyme (ACE) (Homo sapiens, UniProt P12821)", "T1 construct": "purchased Dojindo Laboratories, Kumamoto, Japan", "T1 sequence (P12821 30-1306, species assumed)": "as above", "assay": "ACE-inhibitory activity, ACE Kit-WST (Dojindo)", "format": "biochemical", "settings": "peptide 0.01-1000 µM, 37 °C 1 h, absorbance 450 nm, triplicate, read-out: IC50 (ACE inhibition)", "procedure": "The ACE-inhibitory activity of the peptides was evaluated in vitro using the Dojindo assay kit, following the same procedure as described in our previous study. […] Captopril was used as a positive control to validate the assay system. To assess the stability of the peptides under simulated gastrointestinal (GI) conditions, a two-step enzymatic hydrolysis was conducted. The ACE-inhibitory activity of the peptides was measured both before and after digestion (Figure 1B,C).\nThe ACE-inhibitory activity of the peptides was assessed using the ACE Kit-WST (Dojindo Laboratories, Kumamoto, Japan) following the manufacturer’s protocol. Both peptides were dissolved in distilled water, and serial dilutions were prepared at concentrations of 0.01, 0.10, 1, 10, 100, and 1000 µM. Captopril was used as the positive control. For the assay, 20 µL of each sample solution was added to the designated wells, including the sample, blank 1, and blank 2 wells. Subsequently, 20 µL of substrate buffer was added to all wells. […] Absorbance was measured at 450 nm using a microplate reader. ACE-inhibitory activity was calculated using the following equation:ACE inhibition (%) = (Ablank1 − Asample)/(Ablank1 − Ablank2) × 100 where Ablank1 is the absorbance of the control (without inhibitor), Ablank2 is the absorbance of the reagent alone, and Asample is the absorbance of the peptide-treated sample."}, "[2]": {"test_system": "pepsin, trypsin and chymotrypsin", "assay": "Resistance to simulated GI digestion assay", "format": "in vitro ADME", "settings": "peptide 100 and 200 µM; pepsin 0.01% pH 2.0, 37 °C, 3 h, then trypsin and chymotrypsin each 0.01% pH 7.5, 3 h; read-out ACE-inhibitory activity; triplicate", "procedure": "The stability of the synthesized peptides against gastrointestinal proteases was evaluated using a slightly modified method based on Dong et al. (2024). Peptide solutions at concentrations of 100 and 200 µM were sequentially subjected to enzymatic digestion. Initially, the peptides were incubated with pepsin (0.01%, pH 2.0) at 37 °C for 3 h. This was followed by a second digestion step with trypsin and chymotrypsin (each at 0.01%, pH 7.5) for an additional 3 h under the same temperature conditions. To terminate enzymatic activity, the reaction mixtures were boiled for 10 min. The samples were then centrifuged at 8000× g for 15 min, and the resulting supernatants were collected. The ACE-inhibitory activity of the digested peptide solutions was subsequently analyzed to assess their enzymatic stability."}}, "note": "Peptide text beside a SMILES is read from it."}
{"smiles": "CC[C@H](C)[C@H](N)C(=O)N[C@H](C(=O)NCC(=O)N[C@@H](CCCNC(=N)N)C(=O)N1CCC[C@H]1C(=O)N[C@@H](CC(C)C)C(=O)N[C@@H](C)C(=O)N[C@@H](CC(N)=O)C(=O)NCC(=O)O)C(C)C", "note": "[IVGRPLANG] (H-IVGRPLANG-OH)", "values": [{"measurement": "Ki", "setting": "ACE", "value": 51.4, "unit": "µM"}, {"measurement": "IC50", "setting": "[1]", "value": 23.8, "unit": "µM"}, {"measurement": "ACE-inhibitory activity before and after simulated GI digestion", "setting": "[2]", "value": "retained their ACE-inhibitory activity"}]}
{"smiles": "CC[C@H](C)[C@H](N)C(=O)NCC(=O)N[C@@H](CC(=O)O)C(=O)N[C@@H](CCC(=O)O)C(=O)N1CCC[C@H]1C(=O)N[C@@H](CCCNC(=N)N)C(=O)N[C@@H](Cc1c[nH]cn1)C(=O)N[C@@H](CCC(N)=O)C(=O)N[C@@H](Cc1ccc(O)cc1)C(=O)N[C@@H](CC(C)C)C(=O)O", "note": "[IGDEPRHQYL] (H-IGDEPRHQYL-OH)", "values": [{"measurement": "Ki", "setting": "ACE", "value": 5.46, "unit": "µM"}, {"measurement": "IC50", "setting": "[1]", "value": 5.68, "unit": "µM"}, {"measurement": "ACE-inhibitory activity before and after simulated GI digestion", "setting": "[2]", "value": "retained their ACE-inhibitory activity"}]}
